Results taken from paper PMC12700550, “DLL4^+ neutrophils promote Notch1-mediated endothelial PANoptosis to exacerbate acute lung injury in sepsis” (The Journal of Clinical Investigation, 2025).
“And” between values parts separate entries of the source, which are not always exact repeats. Equal values may be shown once.

B1: eCIRP: extracellular cold-inducible RNA-binding protein; recombinant murine, produced in our laboratory (protein, UniProt P60824 1-172, looked up)
Cold-inducible RNA-binding …: MASDEGKLFVGGLSFDTNEQALEQVFSKYGQISEVVVVKDRETQRSRGFGFVTFENIDDAKDAMMAMNGKSVDGRQIRVDQAGKSSDNRSRGYRGGSAGGRGFFRGGRSRGRGFSRGGGDRGYGGGRFESRSGGYGGSRDYYASRSQGGSYGYRSSGGSYRDSYDSYATHNE

Tests used:
[1] = tested on: ZBP1; assay: ZBP1 protein in lungs of CLP mice, Western blot; type: in vivo, mouse; conditions: 10 mg/kg NDI, 20 h; for lung ZBP1 protein (Figure 5B): individual mice, 10 mg/kg
Procedure: (§1) Sepsis was induced in mice by cecal ligation and puncture (CLP) as described previously ([45], [46]). Mice were anesthetized with isoflurane to a surgical plane and placed in a supine position. CLP was performed through a midline laparotomy. The abdomen was shaved and disinfected. Through a 2 cm midline incision, the cecum was exposed and then ligated with a 4-0 silk suture 1 cm proximal from the distal cecal extremity. For 20-hour CLP experiments, the cecum was punctured twice with a 22-gauge needle. A small amount of cecal content was extruded through both holes, and the ligated cecum was returned to the peritoneal cavity. The wound was closed in layers. For 10-day sepsis survival studies, the cecum was punctured once with a 22-gauge needle. A small amount of cecal content was extruded. Mice were allocated to the vehicle and adoptive transfer of DLL4^+ neutrophils or DLL4^– neutrophils groups. Adoptive transfer mice received a retro-orbital injection of 1 × 10^6 cells per mouse DLL4^+ neutrophils or DLL4^– neutrophils in […] phosphate-buffered saline (PBS) immediately after abdominal closure in both the 20-hour experiments and the survival study. Vehicle groups received an equivalent volume of PBS, while treatment groups received NDI 10 mg/kg in 100 mL PBS via retro-orbital injection after CLP. This dose was chosen primarily on the basis of our laboratory’s prior experience, we have consistently used this dose in mouse CLP models with reproducible efficacy and without observable toxicity ([39], [44]). Sham-operated animals underwent a laparotomy without CLP. After closure, the mice received a subcutaneous injection of 0.5 mL of normal saline to overcome surgery-induced dehydration. […]
PVECs and lung tissue were collected in previous steps. Whole-cell proteins were extracted, and the protein concentration was measured using an ABC protein assay kit (catalog 5000002, Bio-Rad). […] Bands were detected using an Odyssey FC Dual-Mode Imaging system 2800 (LI-COR).

[2] = tested on: ZBP1; assay: ZBP1 protein in PVECs cocultured with neutrophils, Western blot; type: cell-based, mouse; conditions: for ZBP1 protein level (Figure 4F): 10 μM peptide, 16 h, individual replicates
Procedure: Wild-type PVECs (5 × 10^5) were cocultured with sorted DLL4^+ neutrophils (5 × 10^5) or DLL4^– neutrophils (5 × 10^5) and then treated with different dosages of peptides or 10 μM DAPT (Thermo Fisher Scientific), 10 μM NDI (GenScript), or 10 μM NDI scramble (GenScript). Notch1-knockdown PVECs (5 × 10^5) were cocultured with sorted DLL4^+ neutrophils (5 × 10^5). After 16 hours, neutrophils were washed away by PBS, and PVECs were collected for further experiments. Cell viability was evaluated by propidium iodide staining using the FITC Annexin V Apoptosis Detection Kit I (catalog 556547, BD Pharmingen). Cell death was quantified as the percentage of propidium iodide–positive cells by flow cytometry.
PVECs and lung tissue were collected in previous steps. Whole-cell proteins were extracted, and the protein concentration was measured using an ABC protein assay kit (catalog 5000002, Bio-Rad). Proteins were separated using NuPAGE 4%–12% Bis-Tris gels (Invitrogen), transferred to PVDF membranes, and immunoblotted with the antibodies indicated in the figure legends according to the manufacturer’s recommendations. The ZBP1 antibody (catalog PA5-20455; 1:1,000) used in this study was obtained from Thermo Fisher Scientific, and the c-GSDMD (catalog 10137S; 1:250), GSDMD (catalog 39754S; 1:1000), c-caspase-3 (catalog 9661L; 1:250), caspase-3 (catalog 9662S; 1:1,000), p-MLKL (catalog 37333S; 1:250), MLKL (catalog 37705S; 1:1,000), N1ICD (c-Notch1) (catalog 4147S; 1:250), and Notch1 (catalog 3608S; 1:1,000) antibodies were obtained from Cell Signaling Technology. GAPDH (catalog 60004-1-Ig; 1:10,000) and β-actin (catalog A5441, Sigma-Aldrich; 1:5,000) were obtained from ProteinTech. After the blots were incubated with primary antibodies, the membranes were washed 3 times, and the blots were subsequently incubated with the corresponding fluorescent secondary antibody (LI-COR). Bands were detected using an Odyssey FC Dual-Mode Imaging system 2800 (LI-COR).

[3] = tested on: C57BL/6 mice, CLP sepsis; assay: 10-day survival, CLP mice; type: in vivo, mouse; conditions: 10 mg/kg NDI
Procedure: as §1
Data represented in the figures are expressed as mean ± SEM and were compared by 2-tailed Student’s t test for 2 groups or 1-way ANOVA using Student-Newman-Keuls post hoc analysis for multiple groups. Survival rates were analyzed by the Kaplan-Meier estimator and compared using a log-rank test. […]

[4] = tested on: ZBP1; assay: ZBP1 in pulmonary endothelial cells (CD31) of CLP mice, confocal immunofluorescence; type: in vivo, mouse; conditions: sepsis, 10 mg/kg NDI, 20 h
Procedure: as §1, with “study.” for “study. Vehicle groups received an equivalent volume of PBS, while treatment groups received NDI 10 mg/kg in 100 mL PBS via retro-orbital injection after CLP. This dose was chosen primarily on the basis of our laboratory’s prior experience, we have consistently used this dose in mouse CLP models with reproducible efficacy and without observable toxicity ([39], [44]). Sham-operated animals underwent a laparotomy without CLP. After closure, the mice received a subcutaneous injection of 0.5 mL of normal saline to overcome surgery-induced dehydration.”
For immunohistochemistry staining, paraffin-embedded lung tissue sections were deparaffinized and dewaxed in xylene and a series of ethanol. […] The images were analyzed with ImageJ Fiji (NIH).

[5] = tested on: DLL4 expression on human neutrophils; assay: Frequency of DLL4^+ neutrophils (CD66^+DLL4^+), human peripheral blood neutrophils; type: cell-based; conditions: 12 h
From the text: Blood samples were obtained from the deidentified healthy human subjects. Written informed consent was obtained from all participants, and human subject protocols were approved by the Institutional Review Board of the North Shore University Hospital. Five milliliters of blood was collected by venipuncture and placed in EDTA blood collection tubes. We isolated the neutrophils from fresh blood samples by immunomagnetic cell separation using an EasySep Direct Human Neutrophil Isolation Kit (catalog 19666, Stem Cell Technologies). A total of 20 × 10^6 neutrophils were obtained from 5 mL of blood. Neutrophils (1 × 10^6 cells/mL) were stimulated with 1 μg/mL eCIRP for 12 hours. The cells were then stained with anti-CD66b (clone G10F5, catalog 984102, BioLegend) and DLL4 antibodies (clone MHD4-46, catalog 346506, BioLegend), and the frequencies (percentage) of DLL4^+ neutrophils were detected by flow cytometry.

| Molecule | lung ZBP1 protein (Figure 5B) ([1]; DLL4^+ neutrophils + CLP) | effect on lung ZBP1 protein ([1]; DLL4^+ neutrophils/sepsis) | lung ZBP1 protein (Figure 5B) ([1]; DLL4^– neutrophils + CLP) | effect on ZBP1 protein ([2]; 10 μM NDI, DLL4^+ neutrophil coculture) | effect on ZBP1, c-GSDMD, c-caspase-3, and p-MLKL ([2]; 10 μM NDI, DLL4^– neutrophil coculture) | ZBP1 protein level (Figure 4F) ([2]; DLL4^+ neutrophil coculture) | ZBP1 protein level (Figure 4F) ([2]; DLL4^– neutrophil coculture) | survival rate, 10 days ([3]; N = 20, PBS-injected 15%) | survival event code (Figure 6M) ([3]; individual mice, code 0 stands at day 10, 1 at earlier days (meaning not given), 10 mg/kg) | survival time (Figure 6M) ([3]; no exogenous neutrophils, individual mice, event code in next endpoint, 10 mg/kg) | effect on ZBP1 in pulmonary endothelial cells, immunostaining [4] | frequency of DLL4^+ neutrophils (Figure 1K) ([5]; human neutrophils 1 × 10^6/mL, eCIRP 1 μg/mL, individual replicates) | effect on frequency of DLL4^+ neutrophils ([5]; human peripheral blood neutrophils, 1 μg/mL) |
| --- | --- | --- | --- | --- | --- | --- | --- | --- | --- | --- | --- | --- | --- |
| ECAGSPCHNGGTCEDGI [NDI] | 0.846 and 0.9823 and 0.8189 and 0.8666 and 0.6492 and 0.9798 and 0.8814 | effectively decreased ZBP1 expression | 1.332 and 0.9583 and 0.9668 | significantly attenuated by NDI treatment | less effect on the DLL4^– neutrophil coculture group | 3.384 and 1.384 and 0.9406 and 0.8744 and 0.4031 and 0.6648 and 0.9901 and 0.7708 and 1.063 and 1.037 and 1.784 and 1.376 and 1.24 and 1.14 | 1.4609 and 1.716 and 1.338 and 0.9958 and 0.6394 | 75% | 1 and 0 | 3 days and 6 days and 10 days and 2 days and 4 days | reduced ZBP1 expression in pulmonary endothelial cells in sepsis | – | – |
| B1 | – | – | – | – | – | – | – | – | – | – | – | 16% and 10.3% and 4.81% and 7.94% and 7.27% and 10.4% and 15.89% and 20.5% and 19.83% | significantly increased the frequency of DLL4^+ neutrophils |
